Data on 3 molecules can be found in publication PMC10831071, “Reaction hijacking inhibition of Plasmodium falciparum asparagine tRNA synthetase” (Nature Communications, 2024).

pIC50: −log10 of the molar value. Where “and” joins values, the source holds several entries; their conditions need not be identical. Equal entries are not always repeated. Where two headings read alike, the source gives them in different places.

One series has as its target PfAsnRS (Plasmodium falciparum, UniProt O96198). The series can be described thus: biochemical. The conditions noted are these: for ATP consumption: PfAsnRS, normalised to 1 (Fig 3D).
Series [1] has as its system protein translation in P. falciparum trophozoites (Cam3.II-rev). The series can be described thus: Protein translation assay (OPP incorporation). It counts as cell-based, Plasmodium falciparum. The note with it: for Translation: individual experiments, 0 nM = 100; for pIC50: read-out: IC50 (Translation). As for the experimental part: O-propargyl-puromycin (OPP) (Abcam) was added to the culture and incubated for a further 2 h. Parasites were washed three times in 1 × PBS (Gibco™) and fixed with 4% formaldehyde (Polysciences) and 0.02% glutaraldehyde (Sigma) in 1 × PBS for 20 min at room temperature (RT). Cells were washed two times with buffer A (3% human serum in 1 × PBS). Pellets were permeabilized in buffer A containing 0.05% Triton® X-100 and washed two times with buffer A. Fixed-permeabilized cells were subjected to copper-catalyzed azide–alkyne cycloaddition (CuAAC) at 37 °C for 1 h in the presence of 0.1 mM CuSO4, 0.5 mM THPTA, 5 mM sodium ascorbate, and 0.1 μM Alexa Fluor 488 azide in buffer A. Pellets were washed four times in buffer A and resuspended in buffer A containing 25 μg/ml propidium iodide (Invitrogen™). Cells were interrogated by flow cytometry (FACS Canto II; BD Biosciences, San Jose, CA) using FITC and Cy™5.5 channels.

The subject of series [2] is P. falciparum Cam3.II-rev. The series can be described thus: Drug pulse (6 h) viability assay. The format is cell-based, Plasmodium falciparum. The note with it: for pIC50: read-out: IC50 (Viability). On the procedure: Viability was assessed in the second cycle by flow cytometry, following labeling with 2 μM Syto-61 (Thermo Fisher Scientific)[48],[49]. Viability represents the parasitemia normalized to untreated and “kill” controls that were treated with 2 μM dihydroartemisinin (DHA; Sigma-Aldrich) for 48–72 h. For drug pulse assays, tightly synchronized Cam3.II-rev[50] parasites (1–1.5% parasitemia, 0.2% final hematocrit) were added to the plates and incubated for 6 h. Drugs were removed and the parasitemia assessed in the trophozoite stage of the next cycle.

Where [3] appears, read: 78.1 nM, 6 h pulse, individual experiments, 0 nM = 100.
[4] abbreviates: 156.3 nM, 6 h pulse, individual experiments, 0 nM = 100.
[5] abbreviates: 312.5 nM, 6 h pulse, individual experiments, 0 nM = 100.
[6] abbreviates: 625 nM, 6 h pulse, individual experiments, 0 nM = 100.
The mark [7] stands for this setting: 1250 nM, 6 h pulse, individual experiments, 0 nM = 100.
Setting [8] is: 2500 nM, 6 h pulse, individual experiments, 0 nM = 100.
Where [9] appears, read: 5000 nM, 6 h pulse, individual experiments, 0 nM = 100.
Setting [10] is: 10000 nM, 6 h pulse, individual experiments, 0 nM = 100.
[11] abbreviates: 20000 nM, 6 h pulse, individual experiments, 0 nM = 100.

PfAsnRS, sequence (O96198 entry or part of it): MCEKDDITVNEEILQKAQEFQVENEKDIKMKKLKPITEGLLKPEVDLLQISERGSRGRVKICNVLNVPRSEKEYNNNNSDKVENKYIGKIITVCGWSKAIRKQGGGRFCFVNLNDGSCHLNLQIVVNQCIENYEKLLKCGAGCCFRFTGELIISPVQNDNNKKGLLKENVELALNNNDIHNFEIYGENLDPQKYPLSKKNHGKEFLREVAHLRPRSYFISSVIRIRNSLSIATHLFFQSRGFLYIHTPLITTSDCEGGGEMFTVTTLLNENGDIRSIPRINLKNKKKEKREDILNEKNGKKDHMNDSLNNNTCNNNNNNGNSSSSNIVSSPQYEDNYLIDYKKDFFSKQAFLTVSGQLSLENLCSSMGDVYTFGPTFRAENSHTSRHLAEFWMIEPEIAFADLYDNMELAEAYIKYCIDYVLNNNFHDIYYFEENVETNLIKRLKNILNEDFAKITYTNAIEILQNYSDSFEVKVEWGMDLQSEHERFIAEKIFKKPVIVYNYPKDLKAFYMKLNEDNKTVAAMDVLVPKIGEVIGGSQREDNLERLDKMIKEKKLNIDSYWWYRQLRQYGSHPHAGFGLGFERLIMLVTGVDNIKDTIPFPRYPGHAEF

For `Nc1ncnc2c1ncn2[C@@H]1O[C@H](COS(N)(=O)=O)[C@@H](O)[C@H]1O` [AMS, adenosine 5’-O-sulfamate, reference compound], the ATP consumption at PfAsnRS (0.03 μM AMS, 0.03 µM) was 0.946; on PfAsnRS (0.1 μM AMS, 0.1 µM), 0.5414 and 0.637; on PfAsnRS (0.3 μM AMS, 0.3 µM), 0.3347 and 0.4652; on PfAsnRS (1 μM AMS, 1 µM), 0.189 and 0.2604; at PfAsnRS (3 μM AMS, 3 µM), 0.1468 and 0.18; on PfAsnRS (10 μM AMS, 10 µM), 0.0653 and 0.08191. Besides, the ATP consumption on PfAsnRS (30 μM AMS, 30 µM) was 0.09691 and 0.0585. The pIC50 at PfAsnRS (IC50, ATP consumption, 0.05 μM PfAsnRS, E. coli tRNA present, 37 °C, 1 h (Fig. 3C, D)) was 6.72.
As for `C[C@@H]1C[C@@H]([C@H](O)CC2CC(=O)NC(=O)C2)C(=O)[C@@H](C)C1` [Cycloheximide], the Translation in series [1] (39.1 nM, 6 h exposure) is 91.0615 and 76.2984 and 81.7995; in series [1] (78.1 nM, 6 h exposure), 81.922 and 88.5493 and 60.1275; in series [1] (156.3 nM, 6 h exposure), 69.0756 and 65.574 and 56.5841; in series [1] (312.5 nM, 6 h exposure), 54.5569 and 51.3303 and 54.0173; in series [1] (625 nM, 6 h exposure), 34.3298 and 36.573 and 53.0328; in series [1] (1250 nM, 6 h exposure) it was 29.8359 and 24.3187 and 24.0049. For the same molecule, the Translation in series [1] (2500 nM, 6 h exposure) was 20.2838 and 21.5354 and 22.6499; in series [1] (5000 nM, 6 h exposure), 16.1089 and 19.5652 and 16.2965; in series [1] (10000 nM, 6 h exposure) it was 8.675 and 13.4553 and 5.495; in series [1] (20000 nM, 6 h exposure), 7.645 and 6.944 and 4.617. In addition, the pIC50 in series [1] (Plasmodium falciparum) was 6.48; in series [2] (Plasmodium falciparum, 6 h), under 6.00. The Viability is 97.4339 and 92.233 in series [2] (39.1 nM, 6 h pulse, individual experiments, 0 nM = 100); 94.7793 and 98.0583 in series [2] (setting [3]); 102.013 and 98.7864 in series [2] (setting [4]); 97.9775 and 92.233 in series [2] (setting [5]); 92.6066 and 91.9903 in series [2] (setting [6]); 79.0045 and 78.3981 in series [2] (setting [7]). Besides, the Viability was 100.147 and 80.518 and 75 in series [2] (setting [8]); 78.8213 and 75.2427 in series [2] (setting [9]); 77.1877 and 75 in series [2] (setting [10]); 95.0102 and 69.6652 and 71.1165 in series [2] (setting [11]). Besides, the viability at 0.0391 µM in series [2] (Plasmodium falciparum, 6 h, 39.1 nM, 6 h pulse, individual experiments, 0 nM = 100) was 108%. Also, in series [2] (Plasmodium falciparum, 6 h, 78.1 nM, 6 h pulse, individual experiments, 0 nM = 100), the viability at 0.0781 µM worked out at 95.9%. Further, the viability at 0.1563 µM in series [2] (Plasmodium falciparum, 6 h, 156.3 nM, 6 h pulse, individual experiments, 0 nM = 100) turned out to be 109%. Also, the viability at 0.3125 µM in series [2] (Plasmodium falciparum, 6 h, 312.5 nM, 6 h pulse, individual experiments, 0 nM = 100) was 104%. Besides, the viability at 0.625 µM in series [2] (Plasmodium falciparum, 6 h, 625 nM, 6 h pulse, individual experiments, 0 nM = 100) came out at 102%. The viability at 1.25 µM in series [2] (Plasmodium falciparum, 6 h, 1250 nM, 6 h pulse, individual experiments, 0 nM = 100) came to 95%. In addition, the viability at 5 µM in series [2] (Plasmodium falciparum, 6 h, 5000 nM, 6 h pulse, individual experiments, 0 nM = 100) was 95.1%. In addition, the viability at 10 µM in series [2] (Plasmodium falciparum, 6 h, 10000 nM, 6 h pulse, individual experiments, 0 nM = 100) worked out at 88.3%.
`CC1(C)N=C(N)N=C(N)N1OCCCOc1cc(Cl)c(Cl)cc1Cl` [WR99210]: the Translation was 90.9036 and 76.9712 and 89.4018 in series [1] (78.1 nM, 6 h exposure); 89.4578 and 82.2873 and 81.3601 in series [1] (156.3 nM, 6 h exposure); 91.0241 and 91.4005 and 91.4867 in series [1] (312.5 nM, 6 h exposure); 83.5542 and 90.7751 and 99.6277 in series [1] (625 nM, 6 h exposure); 82.5301 and 79.1155 and 98.3867 in series [1] (1250 nM, 6 h exposure); 84.3976 and 81.0364 and 102.259 in series [1] (2500 nM, 6 h exposure). Moreover, the Translation in series [1] (5000 nM, 6 h exposure) was 88.5542 and 92.6513 and 94.4155; in series [1] (10000 nM, 6 h exposure), 97.2892 and 85.5484 and 98.6845; in series [1] (20000 nM, 6 h exposure), 112.47 and 92.0706 and 98.0392; in series [1] (40000 nM, 6 h exposure) it was 103.313 and 81.0364 and 102.259. Further, the pIC50 in series [1] (6 h exposure, OPP in last 2 h, Cam3.II-rev trophozoites) was under 6.00; in series [2] (6 h pulse, viability at trophozoite stage of next cycle) it was 9.05. Besides, the Viability is 90.9718 and 69.2733 and 98.7384 in series [2] (setting [3]); 76.1805 and 35.562 and 55.9172 in series [2] (setting [4]); 32.1885 and 5.756 and 17.0102 in series [2] (setting [5]); 6.692 and 4.516 and 3.401 in series [2] (setting [6]); 5.505 and 0.4167 and 0.2921 in series [2] (setting [7]); 3.52 and 0.4893 and 0.1273 in series [2] (setting [8]). The Viability in series [2] (setting [9]) was 3.786 and 0.4893 and 2.194; in series [2] (setting [10]), 2.477 and 1.7781 and 0.09123; in series [2] (setting [11]) it was 0 and 0.969 and 1.737; in series [2] (40000 nM, 6 h pulse, individual experiments, 0 nM = 100) it was 3.358 and 0 (2×).

Broadly, the pIC50 is the IC50 on a negative log10 scale, so that one unit is a factor of ten. In general, viability refers to a read-out of living cells in per cent, often relative to untreated cells.
